# Test results: ChEMBL document CHEMBL5537158, “Polymyxins with Potent Antibacterial Activity against Colistin-Resistant Pathogens: Fine-Tuning Hydrophobicity with Unnatural Amino Acids” (J Med Chem, 2024)
# Positions of bridges follow the written chain, without caps; N, C: chain ends. Non-standard residues stand in square brackets, D forms with d. Residues, ends and D or L forms follow the SMILES beside them. *: point of attachment. Phe(3,4,5-F3) = N[C@@H](Cc1cc(F)c(F)c(F)c1)C(=O)O; dPhe(3,4,5-F3) = N[C@H](Cc1cc(F)c(F)c(F)c1)C(=O)O; Phe(4-CF3) = N[C@@H](Cc1ccc(C(F)(F)F)cc1)C(=O)O; dPhe(4-CF3) = N[C@H](Cc1ccc(C(F)(F)F)cc1)C(=O)O; dPhe(F5) = N[C@H](Cc1c(F)c(F)c(F)c(F)c1F)C(=O)O; Phe(4-Br) = N[C@@H](Cc1ccc(Br)cc1)C(=O)O; Phe(4-Cl) = N[C@@H](Cc1ccc(Cl)cc1)C(=O)O; dPhe(4-Cl) = N[C@H](Cc1ccc(Cl)cc1)C(=O)O; Phe(3-F) = N[C@@H](Cc1cccc(F)c1)C(=O)O; Phe(4-F) = N[C@@H](Cc1ccc(F)cc1)C(=O)O; dPhe(3-F) = N[C@H](Cc1cccc(F)c1)C(=O)O; Phe(2-F) = N[C@@H](Cc1ccccc1F)C(=O)O; d(hhPhe) = N[C@H](CCCc1ccccc1)C(=O)O; Gly(octyl) = CCCCCCCC[C@H](N)C(=O)O; d(hPhe) = N[C@H](CCc1ccccc1)C(=O)O; hhPhe = N[C@@H](CCCc1ccccc1)C(=O)O; d(hLeu) = CC(C)CC[C@@H](N)C(=O)O; hPhe = N[C@@H](CCc1ccccc1)C(=O)O; dAoc(2) = CCCCCC[C@@H](N)C(=O)O; Octanoyl = CCCCCCCC(=O)*; Dab = NCC[C@H](N)C(=O)O
# Test: Hemolytic activity in human RBC at 400 ug/ml after 1 hr
# Type: toxicity, cell-based, Erythrocyte
# Details: red blood cells (erythrocytes), at 400 µg/mL, read-out: Activity
row,SMILES,"hemolysis at 1 h, 400 ug/ml [%]"
1,"CCCCCCCC(=O)N[C@@H](CCN)C(=O)N[C@H](C(=O)N[C@@H](CCN)C(=O)N[C@H]1CCNC(=O)[C@H]([C@@H](C)O)NC(=O)[C@H](CCN)NC(=O)[C@H](CCN)NC(=O)[C@H](CC(C)C)NC(=O)[C@@H](Cc2cc(F)c(F)c(F)c2)NC(=O)[C@H](CCN)NC1=O)[C@@H](C)O (Octanoyl-[Dab]T[Dab][Dab][Dab][dPhe(3,4,5-F3)]L[Dab][Dab]T; lactam 4-C)",< 10
2,"CCCCCCCC(=O)N[C@@H](CCN)C(=O)N[C@H](C(=O)N[C@@H](CCN)C(=O)N[C@H]1CCNC(=O)[C@H]([C@@H](C)O)NC(=O)[C@H](CCN)NC(=O)[C@H](CCN)NC(=O)[C@H](Cc2cc(F)c(F)c(F)c2)NC(=O)[C@@H](CC(C)C)NC(=O)[C@H](CCN)NC1=O)[C@@H](C)O (Octanoyl-[Dab]T[Dab][Dab][Dab][dL][Phe(3,4,5-F3)][Dab][Dab]T; lactam 4-C)",< 10
3,CCCCCCCC(=O)N[C@@H](CCN)C(=O)N[C@H](C(=O)N[C@@H](CCN)C(=O)N[C@H]1CCNC(=O)[C@H]([C@@H](C)O)NC(=O)[C@H](CCN)NC(=O)[C@H](CCN)NC(=O)[C@H](Cc2ccc(C(F)(F)F)cc2)NC(=O)[C@@H](CC(C)C)NC(=O)[C@H](CCN)NC1=O)[C@@H](C)O (Octanoyl-[Dab]T[Dab][Dab][Dab][dL][Phe(4-CF3)][Dab][Dab]T; lactam 4-C),< 10
4,CCCCCCCC(=O)N[C@@H](CCN)C(=O)N[C@H](C(=O)N[C@@H](CCN)C(=O)N[C@H]1CCNC(=O)[C@H]([C@@H](C)O)NC(=O)[C@H](CCN)NC(=O)[C@H](CCN)NC(=O)[C@H](Cc2cccc(F)c2)NC(=O)[C@@H](CC(C)C)NC(=O)[C@H](CCN)NC1=O)[C@@H](C)O (Octanoyl-[Dab]T[Dab][Dab][Dab][dL][Phe(3-F)][Dab][Dab]T; lactam 4-C),< 10
5,CCCCCCCC(=O)N[C@@H](CCN)C(=O)N[C@H](C(=O)N[C@@H](CCN)C(=O)N[C@H]1CCNC(=O)[C@H]([C@@H](C)O)NC(=O)[C@H](CCN)NC(=O)[C@H](CCN)NC(=O)[C@H](CC(C)C)NC(=O)[C@@H](Cc2ccc(Br)cc2)NC(=O)[C@H](CCN)NC1=O)[C@@H](C)O,< 10
6,CCCCCCCC(=O)N[C@@H](CCN)C(=O)N[C@H](C(=O)N[C@@H](CCN)C(=O)N[C@H]1CCNC(=O)[C@H]([C@@H](C)O)NC(=O)[C@H](CCN)NC(=O)[C@H](CCN)NC(=O)[C@H](CCCc2ccccc2)NC(=O)[C@@H](CC(C)C)NC(=O)[C@H](CCN)NC1=O)[C@@H](C)O (Octanoyl-[Dab]T[Dab][Dab][Dab][dL][hhPhe][Dab][Dab]T; lactam 4-C),< 10
7,CCCCCCCC(=O)N[C@@H](CCN)C(=O)N[C@H](C(=O)N[C@@H](CCN)C(=O)N[C@H]1CCNC(=O)[C@H]([C@@H](C)O)NC(=O)[C@H](CCN)NC(=O)[C@H](CCN)NC(=O)[C@H](CC(C)C)NC(=O)[C@@H](Cc2ccc(C(F)(F)F)cc2)NC(=O)[C@H](CCN)NC1=O)[C@@H](C)O (Octanoyl-[Dab]T[Dab][Dab][Dab][dPhe(4-CF3)]L[Dab][Dab]T; lactam 4-C),< 10
8,CCCCCCCC(=O)N[C@@H](CCN)C(=O)N[C@H](C(=O)N[C@@H](CCN)C(=O)N[C@H]1CCNC(=O)[C@H]([C@@H](C)O)NC(=O)[C@H](CCN)NC(=O)[C@H](CCN)NC(=O)[C@H](CCCCCC)NC(=O)[C@@H](Cc2ccccc2)NC(=O)[C@H](CCN)NC1=O)[C@@H](C)O,< 10
9,CCCCCCCC(=O)N[C@@H](CCN)C(=O)N[C@H](C(=O)N[C@@H](CCN)C(=O)N[C@H]1CCNC(=O)[C@H]([C@@H](C)O)NC(=O)[C@H](CCN)NC(=O)[C@H](CCN)NC(=O)[C@H](Cc2ccc(Br)cc2)NC(=O)[C@@H](CC(C)C)NC(=O)[C@H](CCN)NC1=O)[C@@H](C)O (Octanoyl-[Dab]T[Dab][Dab][Dab][dL][Phe(4-Br)][Dab][Dab]T; lactam 4-C),< 10
10,CCCCCCCC(=O)N[C@@H](CCN)C(=O)N[C@H](C(=O)N[C@@H](CCN)C(=O)N[C@H]1CCNC(=O)[C@H]([C@@H](C)O)NC(=O)[C@H](CCN)NC(=O)[C@H](CCN)NC(=O)[C@H](CC(C)C)NC(=O)[C@@H](Cc2ccc(Cl)cc2)NC(=O)[C@H](CCN)NC1=O)[C@@H](C)O (Octanoyl-[Dab]T[Dab][Dab][Dab][dPhe(4-Cl)]L[Dab][Dab]T; lactam 4-C),< 10
11,CCCCCCCC(=O)N[C@@H](CCN)C(=O)N[C@H](C(=O)N[C@@H](CCN)C(=O)N[C@H]1CCNC(=O)[C@H]([C@@H](C)O)NC(=O)[C@H](CCN)NC(=O)[C@H](CCN)NC(=O)[C@H](Cc2ccccc2)NC(=O)[C@@H](CCC(C)C)NC(=O)[C@H](CCN)NC1=O)[C@@H](C)O (Octanoyl-[Dab]T[Dab][Dab][Dab][d(hLeu)]F[Dab][Dab]T; lactam 4-C),< 10
12,CCCCCCCC(=O)N[C@@H](CCN)C(=O)N[C@H](C(=O)N[C@@H](CCN)C(=O)N[C@H]1CCNC(=O)[C@H]([C@@H](C)O)NC(=O)[C@H](CCN)NC(=O)[C@H](CCN)NC(=O)[C@H](CC(C)C)NC(=O)[C@@H](CCc2ccccc2)NC(=O)[C@H](CCN)NC1=O)[C@@H](C)O (Octanoyl-[Dab]T[Dab][Dab][Dab][d(hPhe)]L[Dab][Dab]T; lactam 4-C),< 10
13,CCCCCCCC(=O)N[C@@H](CCN)C(=O)N[C@H](C(=O)N[C@@H](CCN)C(=O)N[C@H]1CCNC(=O)[C@H]([C@@H](C)O)NC(=O)[C@H](CCN)NC(=O)[C@H](CCN)NC(=O)[C@H](Cc2ccccc2)NC(=O)[C@@H](CCc2ccccc2)NC(=O)[C@H](CCN)NC1=O)[C@@H](C)O (Octanoyl-[Dab]T[Dab][Dab][Dab][d(hPhe)]F[Dab][Dab]T; lactam 4-C),< 10
14,CCCCCCCC(=O)N[C@@H](CCN)C(=O)N[C@H](C(=O)N[C@@H](CCN)C(=O)N[C@H]1CCNC(=O)[C@H]([C@@H](C)O)NC(=O)[C@H](CCN)NC(=O)[C@H](CCN)NC(=O)[C@H](CC(C)C)NC(=O)[C@@H](CCCc2ccccc2)NC(=O)[C@H](CCN)NC1=O)[C@@H](C)O (Octanoyl-[Dab]T[Dab][Dab][Dab][d(hhPhe)]L[Dab][Dab]T; lactam 4-C),< 10
15,CC(=O)N[C@H](Cc1ccccc1F)C(=O)N[C@@H](CCN)C(=O)N[C@H](C(=O)N[C@@H](CCN)C(=O)N[C@H]1CCNC(=O)[C@H]([C@@H](C)O)NC(=O)[C@H](CCN)NC(=O)[C@H](CCN)NC(=O)[C@H](CC(C)C)NC(=O)[C@@H](Cc2ccccc2)NC(=O)[C@@H](CCN)NC1=O)[C@H](C)O,< 10
16,CCCCCCCC(=O)N[C@@H](CCN)C(=O)N[C@H](C(=O)N[C@@H](CCN)C(=O)N[C@H]1CCNC(=O)[C@H]([C@@H](C)O)NC(=O)[C@H](CCN)NC(=O)[C@H](CCN)NC(=O)[C@H](Cc2ccc(Cl)cc2)NC(=O)[C@@H](CC(C)C)NC(=O)[C@H](CCN)NC1=O)[C@@H](C)O (Octanoyl-[Dab]T[Dab][Dab][Dab][dL][Phe(4-Cl)][Dab][Dab]T; lactam 4-C),< 10
17,CCCCCCCC(=O)N[C@@H](CCN)C(=O)N[C@H](C(=O)N[C@@H](CCN)C(=O)N[C@H]1CCNC(=O)[C@H]([C@@H](C)O)NC(=O)[C@H](CCN)NC(=O)[C@H](CCN)NC(=O)[C@H](CC(C)C)NC(=O)[C@@H](Cc2c(F)c(F)c(F)c(F)c2F)NC(=O)[C@H](CCN)NC1=O)[C@@H](C)O (Octanoyl-[Dab]T[Dab][Dab][Dab][dPhe(F5)]L[Dab][Dab]T; lactam 4-C),< 10
18,CCCCCCCC(=O)N[C@@H](CCN)C(=O)N[C@H](C(=O)N[C@@H](CCN)C(=O)N[C@H]1CCNC(=O)[C@H]([C@@H](C)O)NC(=O)[C@H](CCN)NC(=O)[C@H](CCN)NC(=O)[C@H](CCc2ccccc2)NC(=O)[C@@H](CC(C)C)NC(=O)[C@H](CCN)NC1=O)[C@@H](C)O (Octanoyl-[Dab]T[Dab][Dab][Dab][dL][hPhe][Dab][Dab]T; lactam 4-C),< 10
19,CCCCCCCC[C@@H]1NC(=O)[C@@H](Cc2ccccc2)NC(=O)[C@H](CCN)NC(=O)[C@@H](NC(=O)[C@H](CCN)NC(=O)[C@@H](NC(=O)[C@H](CCN)NC(=O)CCCCCCC)[C@@H](C)O)CCNC(=O)[C@H]([C@@H](C)O)NC(=O)[C@H](CCN)NC(=O)[C@H](CCN)NC1=O (Octanoyl-[Dab]T[Dab][Dab][Dab][dF][Gly(octyl)][Dab][Dab]T; lactam 4-C),< 10
20,CCCCCCCC(=O)N[C@@H](CCN)C(=O)N[C@H](C(=O)N[C@@H](CCN)C(=O)N[C@H]1CCNC(=O)[C@H]([C@@H](C)O)NC(=O)[C@H](CCN)NC(=O)[C@H](CCN)NC(=O)[C@H](Cc2ccc(F)cc2)NC(=O)[C@@H](CC(C)C)NC(=O)[C@H](CCN)NC1=O)[C@@H](C)O (Octanoyl-[Dab]T[Dab][Dab][Dab][dL][Phe(4-F)][Dab][Dab]T; lactam 4-C),< 10
21,CCCCCCCC(=O)N[C@@H](CCN)C(=O)N[C@H](C(=O)N[C@@H](CCN)C(=O)N[C@H]1CCNC(=O)[C@H]([C@@H](C)O)NC(=O)[C@H](CCN)NC(=O)[C@H](CCN)NC(=O)[C@H](Cc2ccccc2F)NC(=O)[C@@H](CC(C)C)NC(=O)[C@H](CCN)NC1=O)[C@@H](C)O (Octanoyl-[Dab]T[Dab][Dab][Dab][dL][Phe(2-F)][Dab][Dab]T; lactam 4-C),< 10
22,CCCCCCCC(=O)N[C@@H](CCN)C(=O)N[C@H](C(=O)N[C@@H](CCN)C(=O)N[C@H]1CCNC(=O)[C@H]([C@@H](C)O)NC(=O)[C@H](CCN)NC(=O)[C@H](CCN)NC(=O)[C@H](Cc2ccccc2)NC(=O)[C@@H](CCCCCC)NC(=O)[C@H](CCN)NC1=O)[C@@H](C)O (Octanoyl-[Dab]T[Dab][Dab][Dab][dAoc(2)]F[Dab][Dab]T; lactam 4-C),< 10
23,CCCCCCCC(=O)N[C@@H](CCN)C(=O)N[C@H](C(=O)N[C@@H](CCN)C(=O)N[C@H]1CCNC(=O)[C@H]([C@@H](C)O)NC(=O)[C@H](CCN)NC(=O)[C@H](CCN)NC(=O)[C@H](CC(C)C)NC(=O)[C@@H](Cc2cccc(F)c2)NC(=O)[C@H](CCN)NC1=O)[C@@H](C)O (Octanoyl-[Dab]T[Dab][Dab][Dab][dPhe(3-F)]L[Dab][Dab]T; lactam 4-C),< 10
